The assay concerns BDF1 mice, P388 leukemia ip, median survival T/C. The assay can be described thus: NCI In Vivo Anticancer Drug Screen. Data for tumor model P388 Leukemia (intraperitoneal) in B6D2F1 (BDF1) mice. The conditions noted are these: endpoint: median survival time, higher = longer survival. In outline:
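Transplantable tumour in mice; compound vs vehicle dosing; survival scored; ratio of treated to control reported.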

[1] abbreviates: dose: 50.0 mg/kg/injection, schedule: Q01DX009 (ip), vehicle: saline with Tween-80.
The mark [2] stands for this setting: dose: 100.0 mg/kg/injection, schedule: Q01DX009 (ip), vehicle: saline with Tween-80.
[3] abbreviates: dose: 100.0 mg/kg/injection, schedule: Q04DX003 (ip), vehicle: saline with Tween-80.
The mark [4] stands for this setting: dose: 200.0 mg/kg/injection, schedule: Q01DX009 (ip), vehicle: saline with Tween-80.
[5] abbreviates: dose: 200.0 mg/kg/injection, schedule: Q04DX003 (ip), vehicle: saline with Tween-80.
[6] abbreviates: dose: 25.0 mg/kg/injection, schedule: Q01DX009 (ip), vehicle: saline.
Where [7] appears, read: dose: 50.0 mg/kg/injection, schedule: Q01DX009 (ip), vehicle: saline.

The structures appear in SMILES notation. Where “and” joins values, the source holds several entries; their conditions need not be identical. Equal entries are not always repeated. Toxic doses and inconclusive results are not listed.

Regarding `COc1ccccc1NC(=O)N(CCCl)N=O`, the T/C is 110 % of control (dose: 0.1 mg/kg/injection, schedule: Q04DX003 (ip), vehicle: saline with Tween-80); 100 % of control (dose: 0.2 mg/kg/injection, schedule: Q04DX003 (ip), vehicle: saline with Tween-80); 105 % of control (dose: 0.4 mg/kg/injection, schedule: Q04DX003 (ip), vehicle: saline with Tween-80); 110 % of control (dose: 0.8 mg/kg/injection, schedule: Q04DX003 (ip), vehicle: saline with Tween-80).

Consider `COc1ccc(CN(CCOC(=O)c2ccc(OC)cc2)CCN(CCOC(=O)c2ccc(OC)cc2)Cc2ccc(OC)cc2)cc1`, for which the T/C by setting is: (dose: 25.0 mg/kg/injection, schedule: Q01DX009 (ip), vehicle: other) 89 % of control; (dose: 25.0 mg/kg/injection, schedule: Q01DX009 (ip), vehicle: water) 93 % of control; (dose: 25.0 mg/kg/injection, schedule: Q04DX003 (ip), vehicle: water) 95 % of control and 100 % of control; (dose: 50.0 mg/kg/injection, schedule: Q01DX009 (ip), vehicle: other) 91 % of control; (dose: 50.0 mg/kg/injection, schedule: Q01DX009 (ip), vehicle: water) 101 % of control; (dose: 100.0 mg/kg/injection, schedule: Q01DX009 (ip), vehicle: other) 86 % of control. In addition, the T/C (dose: 200.0 mg/kg/injection, schedule: Q01DX009 (ip), vehicle: other) was 94 % of control; the T/C (dose: 200.0 mg/kg/injection, schedule: Q01DX009 (ip), vehicle: water) was 110 % of control; the T/C (dose: 300.0 mg/kg/injection, schedule: Q04DX003 (ip), vehicle: water) is 107 % of control; the T/C (dose: 400.0 mg/kg/injection, schedule: Q01DX009 (ip), vehicle: water) is 95 % of control.

As for `CCCc1cc(CCC)n2nc(N)nc2n1`, the T/C reads like this: under setting [1], 109 % of control; under setting [2], 100 % of control.

For the compound `COC(=O)CCc1c[nH]c2ccc(N(CCCl)CCCl)cc12`, the T/C reads like this: (dose: 0.03 mg/kg/injection, schedule: Q04DX003 (ip), vehicle: saline with Tween-80) 105 % of control; (dose: 0.04 mg/kg/injection, schedule: Q01DX009 (ip), vehicle: saline with Tween-80) 122 % of control; (dose: 0.1 mg/kg/injection, schedule: Q01DX009 (ip), vehicle: saline with Tween-80) 154 % of control and 163 % of control; (dose: 0.16 mg/kg/injection, schedule: Q04DX003 (ip), vehicle: saline with Tween-80) 113 % of control; (dose: 0.2 mg/kg/injection, schedule: Q01DX009 (ip), vehicle: saline with Tween-80) 172 % of control; (dose: 0.25 mg/kg/injection, schedule: Q04DX003 (ip), vehicle: saline with Tween-80) 166 % of control. Besides, the T/C was 155 % of control and 181 % of control (dose: 0.3 mg/kg/injection, schedule: Q01DX009 (ip), vehicle: saline with Tween-80); 170 % of control (dose: 0.5 mg/kg/injection, schedule: Q04DX003 (ip), vehicle: saline with Tween-80); 113 % of control (dose: 0.63 mg/kg/injection, schedule: Q04DX003 (ip), vehicle: saline with Tween-80); 166 % of control (dose: 0.8 mg/kg/injection, schedule: Q01DX009 (ip), vehicle: saline with Tween-80); 241 % of control (dose: 1.0 mg/kg/injection, schedule: Q04DX003 (ip), vehicle: saline with Tween-80); 196 % of control and 212 % of control (dose: 1.25 mg/kg/injection, schedule: Q01DX009 (ip), vehicle: saline with Tween-80). The T/C runs as follows: (dose: 1.3 mg/kg/injection, schedule: Q04DX003 (ip), vehicle: saline with Tween-80) 205 % of control; (dose: 2.0 mg/kg/injection, schedule: Q04DX003 (ip), vehicle: saline with Tween-80) 265 % of control and 217 % of control; (dose: 2.5 mg/kg/injection, schedule: Q01DX009 (ip), vehicle: saline with Tween-80) 250 % of control; (dose: 3.0 mg/kg/injection, schedule: Q04DX003 (ip), vehicle: saline with Tween-80) 260 % of control and 290 % of control; (dose: 4.4 mg/kg/injection, schedule: Q04DX003 (ip), vehicle: saline with Tween-80) 280 % of control and 300 % of control; (dose: 4.5 mg/kg/injection, schedule: Q04DX003 (ip), vehicle: saline with Tween-80) 260 % of control. In addition, the T/C (dose: 6.7 mg/kg/injection, schedule: Q04DX003 (ip), vehicle: saline with Tween-80) was 300 % of control; the T/C (dose: 6.75 mg/kg/injection, schedule: Q04DX003 (ip), vehicle: saline with Tween-80) is 260 % of control; the T/C (dose: 10.0 mg/kg/injection, schedule: Q04DX003 (ip), vehicle: saline with Tween-80) was 200 % of control; the T/C (dose: 15.0 mg/kg/injection, schedule: Q04DX003 (ip), vehicle: saline with Tween-80) was 120 % of control; the T/C (dose: 40.0 mg/kg/injection, schedule: Q04DX003 (ip), vehicle: saline with Tween-80) is 272 % of control.

With `c1ccc(C2CC3CCCCN3O2)cc1` (stereo not drawn), the T/C is, setting by setting: (dose: 100.0 mg/kg/injection, schedule: Q04DX002 (ip), vehicle: saline with Tween-80) 94 % of control; (dose: 200.0 mg/kg/injection, schedule: Q04DX002 (ip), vehicle: saline with Tween-80) 103 % of control; (dose: 400.0 mg/kg/injection, schedule: Q04DX002 (ip), vehicle: saline with Tween-80) 86 % of control.

Consider `COc1cc(C(C)O)cc(OC)c1OC` (stereo not drawn), for which the T/C reads like this: under setting [2], 92 % of control; under setting [3], 95 % of control; under setting [4], 92 % of control; under setting [5], 104 % of control; (dose: 400.0 mg/kg/injection, schedule: Q04DX003 (ip), vehicle: saline with Tween-80) 95 % of control.

As for `O=C(CC(NC(=O)OCc1ccccc1)C(=O)OCc1ccccc1)OCc1ccccc1` (stereo not drawn), the T/C under setting [2] was 97 % of control; the T/C under setting [4] is 108 % of control; the T/C (dose: 400.0 mg/kg/injection, schedule: Q01DX009 (ip), vehicle: saline with Tween-80) was 97 % of control.

As to `O=C(O)C(CSC(c1ccccc1)(c1ccccc1)c1ccccc1)N=Cc1cccs1` (stereo not drawn), the T/C was 118 % of control (dose: 2.1 mg/kg/injection, schedule: Q01DX009 (ip), vehicle: saline); 109 % of control (dose: 3.1 mg/kg/injection, schedule: Q01DX009 (ip), vehicle: saline); 175 % of control (dose: 7.2 mg/kg/injection, schedule: Q01DX009 (ip), vehicle: saline); 189 % of control (dose: 11.0 mg/kg/injection, schedule: Q01DX009 (ip), vehicle: saline); 163 % of control (dose: 16.0 mg/kg/injection, schedule: Q01DX009 (ip), vehicle: saline); 185 % of control under setting [6]. Further, the T/C was 200 % of control under setting [7]; 272 % of control and 177 % of control (dose: 66.0 mg/kg/injection, schedule: Q01DX009 (ip), vehicle: saline); 250 % of control and 90 % of control and 218 % of control (dose: 100.0 mg/kg/injection, schedule: Q01DX009 (ip), vehicle: saline); 100 % of control (dose: 150.0 mg/kg/injection, schedule: Q01DX009 (ip), vehicle: saline).

Regarding `COc1ccc(CNCC(=O)OCc2ccccc2)cc1`, the T/C reads like this: (dose: 25.0 mg/kg/injection, schedule: Q01DX009 (ip), vehicle: saline with Tween-80) 92 % of control; under setting [1], 101 % of control; under setting [2], 88 % of control; under setting [3], 111 % of control; under setting [4], 102 % of control; under setting [5], 109 % of control.

`C=C1C(=O)OC2CC3(C)CC(O)C(OC(C)=O)C(=C)C3CC12` (stereo not drawn): the T/C was 104 % of control under setting [6] and 101 % of control under setting [7].

For `[NH-][n+]1c2c(nc3ccccc31)-c1cccc3cccc-2c13`, the T/C runs as follows: (dose: 12.5 mg/kg/injection, schedule: Q01DX001 (ip), vehicle: Klucel (hydroxypropylcellulose) (HPC)) 111 % of control; (dose: 25.0 mg/kg/injection, schedule: Q01DX001 (ip), vehicle: Klucel (hydroxypropylcellulose) (HPC)) 100 % of control; (dose: 50.0 mg/kg/injection, schedule: Q01DX001 (ip), vehicle: Klucel (hydroxypropylcellulose) (HPC)) 100 % of control.

With `CNC(=O)C(C)(C)Br`, the T/C was 100 % of control (dose: 200.0 mg/kg/injection, schedule: Q04DX003 (ip), vehicle: saline) and 90 % of control (dose: 400.0 mg/kg/injection, schedule: Q04DX003 (ip), vehicle: saline).

(Values after PubChem BioAssay AID328 (DTP/NCI, 2004).)
